Experimental findings from article PMC12052742, “Engineering a newly identified alcohol dehydrogenase from Sphingobium Sp. for efficient utilization of nicotinamide cofactors biomimetics” (Bioresources and Bioprocessing, 2025) are described below.

Common to all, as to type: biochemical, Sphingobium sp. SYK-6
Assay [1] concerns SpADH2. Briefly: Cofactor spectrum of syringyl alcohol oxidation (HPLC specific activity), WT. The conditions noted are these: 1a 5 mM, cofactor 7.5 mM, pH 7.5, 30℃; for decrease in activity compared with NAD^+ as cofactor: 0.05 µg SpADH2; for activity of SpADH2 with the tsNCB as cofactor / utilization of the tsNCB by SpADH2 (in words): 5 µg SpADH2, 1 h. How it is done:
Fig. 2 Cofactor spectrum of syringyl alcohol oxidation catalyzed by SpADH2. The darkness of the background color for each cofactor stands for the activity of SpADH2 utilizing various cofactors. (a) NAD(P) ^+ and NMN^+ are shown in purple background. (b) tsNCBs are shown in cyan background. The evaluation of cofactor spectrum of SpADH2 was carried out under following conditions: 50 mM PBS buffer (pH 7.5) and 30℃, with 1a (5 mM) as substrate and different cofactors (7.5 mM) as cofactor. For NAD(P)^+ and NMN^+, 0.05 µg SpADH2 was added, and for tsNCBs, 5 µg SpADH2 was added. The results were analyzed by HPLC after 1 h reaction
(§1) Specific activity of SpADH2 in cofactor spectrum study was determined by HPLC analysis. PBS (pH 7.5) buffer was pre-heated at 30°C for 15 min. For NAD(P)^+ and NMN^+, 0.05 µg SpADH2 was added to PBS buffer (100 µL). For tsNCBs, 5 µg SpADH2 was added. A final concentration of 7.5 mM cofactor was added to the reaction mixture. Finally, a final concentration of 5 mM substrate was added to start the reaction. The reactions were conducted at 30°C.
(§2) One unit of enzyme activity is defined as the amount of enzyme required to form 1 µmol 1b per minute at pH 7.5 and 30°C. Same reaction without cofactor was used as a blank control.

Assay [2] deals with SpADH2 variants (H43L, A290I, H43L/A290I). Briefly: Cofactor spectrum (HPLC specific activity), all variants together. The conditions noted are these: 1a 5 mM, cofactor 7.5 mM, pH 7.5, 30℃. How it is done: (§3) Fig. 8 Cofactor spectrums of SpADH2 and its variants. The darkness of color for each cofactor stands for the activity. For each cofactor cube, top left: WT, top right: H43L, bottom left: A290I, bottom right: H43L/A290I. (a) Natural cofactors and NMN^+ are shown in purple. (b) tsNCBs are shown in cyan. The evaluation of cofactor spectrum was carried out under following conditions: 50 mM PBS buffer (pH 7.5) and 30℃, with 1a (5 mM) as substrate and different cofactors (7.5 mM) as cofactor. For NAD(P)^+ and NMN^+, 0.05 µg enzyme was added, and for tsNCBs, 5 µg enzyme was added. The results were analyzed by HPLC after 1 h reaction
as §1, §2

In assay [3] the test system is SpADH2 variant A290I. Briefly: Cofactor spectrum (HPLC specific activity), variant A290I. The conditions noted are these: 1a 5 mM, cofactor 7.5 mM, pH 7.5, 30℃, 5 µg enzyme. How it is done: as §3, §1, §2
Assay [4] relates to SpADH2. Briefly: Preliminary evaluation of NCB usage in oxidation of syringyl alcohol (HPLC). The conditions noted are these: preliminary assay: 1a 1 mM, NCB 10 mM, pH 7.0, 30℃, 1 h. How it is done:
Sphingobium sp. SYK-6 belongs to genus Sphingomonas, and a search in UniProtKB identified 19 ADHs from this strain, including 5 PQQ-dependent and the remaining NAD^+/NADP^+-dependent enzymes. Two sequences annotated as aryl-alcohol dehydrogenases (SLG_34580 and SLG_24930) (Table. S1) were selected for heterologous expression (Fig. S1) and named SpADH1 and SpADH2, respectively. Their ability to utilize NCBs was assessed by oxidation of syringyl alcohol (1a) to produce syringaldehyde (1b) (Fig. 1a).
Fig. 1 (a) Reaction scheme of SpADH2-catalyzed oxidation of syringyl alcohol. (b) Specific activity of SpADH2 toward four NCBs. The evaluation of NCBs usage by SpADH2 was carried out under following conditions: 50 mM PBS buffer (pH 7.0) and 30℃, with 1a (1 mM) as substrate and 4 typical NCBs (10 mM) as cofactor. A total of 0.1 mg/mL enzyme was added to a 200 µL reaction mixture, and was analyzed by HPLC after 1 h reaction
Reaction samples were analyzed using Agilent 1260 Infinity II LC system under reversed phase condition. Column: Agilent C18 column. Analytical conditions for 1a and 1b: mobile phase: 50% water: 50% acetonitrile. The retention time for standard product 1b was 3.27 min, under flow rate of 1 mL·min^− 1and temperature of 30°C (Fig. S4).

The test system of assay [5] is SpADH2. Briefly: Substrate spectrum (spectrophotometric specific activity, fluorescent probe). The conditions noted are these: substrate 5 mM, 1 h; for substrate preference of SpADH2 (in words): cofactor p-BANA^+ 7.5 mM, 5 µg SpADH2, pH 7.5, 30℃; for specific activity of SpADH2 toward the substrate: cofactor NAD^+ 2 mM, 0.05 µg SpADH2, pH 7.5, 30℃. The protocol:
Fig. 3 Substrate spectrum of SpADH2 utilizing (a) NAD^+ and (b) p-BANA^+. The darkness of the background color for each substrate stands for the activity of SpADH2 with NAD^+ (purple) or p-BANA^+ (cyan) as cofactor. The evaluation of substrate spectrum of SpADH2 was carried out under following conditions: 50 mM PBS buffer (pH 7.5) and 30℃, with 1a (5 mM) as substrate. For NAD^+(2 mM), 0.05 µg SpADH2 was added, and for p-BANA^+(7.5 mM), 5 µg SpADH2 was added. After 1 h, reactions were visualized by 0.2 mM florescent probes (2-[2-(1,4-dihydro-1-methyl-3-quinolinyl)ethenyl]-1,3,3-trimethyl-3H-indolium)
Specific activity of SpADH2 in substrate spectrum study was measured spectrophotometrically. PBS (pH 7.5) buffer was pre-heated at 30°C for 15 min. For NAD^+, 0.05 µg SpADH2 was added to the PBS buffer (100 µL), and a final concentration of 2 mM NAD^+ was added. For tsNCBs cofactor p-BANA^+, 5 µg SpADH2 and a final concentration of 7.5 mM p-BANA^+ was added. The mixture was carried out in a 96-well microplate, and a final concentration of 5 mM substrate was added to start the reaction. The microplate was incubated in 30°C for 1 h. Florescent probes (2-[2-(1,4-dihydro-1-methyl-3-quinolinyl)ethenyl]-1,3,3-trimethyl-3H-indolium) in a final concentration of 0.2 mM (100 µL) was added (Scheme S1), and the microplate was placed in a microplate reader immediately for measurement under 537 nm (Fomin et al. [2016]).
One unit of enzyme activity is defined as the amount of enzyme required to form 1 µmol of reduced florescent probes per minute at pH 7.5 and 30°C. Each reaction was repeated in triplet. Same reaction without substrate was used as a blank control. The molar absorbance coefficient (ε) was detected as […] with NADH as the reduced cofactor and 60,801 µM^− 1·cm^− 1 with p-BANAH as the reduced cofactor.

As to `NC(=O)c1ccc[n+]([C@@H]2O[C@H](COP(=O)(O)OP(=O)([O-])OC[C@H]3O[C@@H](n4cnc5c(N)ncnc54)[C@H](OP(=O)(O)O)[C@@H]3O)[C@@H](O)[C@H]2O)c1` [NADP^+, reference compound], the “decrease in activity compared with NAD^+ as cofactor” value in assay [1] is recorded as “roughly 50%”. Also, in assay [2], the “catalytic activity of all variants with the cofactor (in words)” value (“catalytic activity of all variants” below) is reported as “relatively lower catalytic activity”. Regarding `NC(=O)c1ccc[n+]([C@@H]2O[C@H](COP(=O)([O-])O)[C@@H](O)[C@H]2O)c1` [NMN^+, nicotinamide mononucleotide, reference compound], the “decrease in activity compared with NAD^+ as cofactor” value in assay [1] is reported as “roughly 50%”. Besides, the “catalytic activity of all variants” value in assay [2] was “relatively lower catalytic activity”.

Consider `NC(=O)c1ccc[n+](Cc2ccccc2[N+](=O)[O-])c1` [o-BNNA^+], for which, in assay [3], the “utilization of the tsNCB (in words)” value was “capable of utilizing”. Besides, in assay [1], the “activity of SpADH2 with the tsNCB as cofactor” value is on record as 1.92 U/g. With `NC(=O)c1ccc[n+](Cc2ccccc2)c1` [BNA^+, 1-benzyl-3-carbamoylpyridin-1-ium], in assay [4], the “utilization of the NCB by SpADH2 (in words)” value is on record as “Appreciable activity”. With `COc1cc(CO)cc(OC)c1O` [syringyl alcohol], the “substrate preference of SpADH2 (in words)” value (“substrate preference” below) in assay [5] is “optimal substrate”.

Regarding `NC(=O)c1ccc[n+](Cc2cccc([N+](=O)[O-])c2)c1` [m-BNNA^+, meta-3-carbamoyl-1-(3-nitrobenzyl)pyridin-1-ium], the “utilization of the tsNCB (in words)” value in assay [3] was “capable of utilizing”. In addition, in assay [1], the “utilization of the tsNCB by SpADH2 (in words)” value is “not effectively utilized”. For the molecule `NC(=O)c1ccc[n+](Cc2ccccc2Br)c1` [o-BBrNA^+], the “activity of SpADH2 with the tsNCB as cofactor” value in assay [1] turned out to be 1.3 U/g. As to `NC(=O)c1ccc[n+](Cc2ccc([N+](=O)[O-])cc2)c1` [p-BNNA^+], the “utilization of the tsNCB (in words)” value in assay [3] is “capable of utilizing”. For the same molecule, the “activity of SpADH2 with the tsNCB as cofactor” value in assay [1] was 2.25 U/g. As for `OCc1ccccc1` [benzyl alcohol], in assay [5], the “specific activity of SpADH2 toward the substrate” value was determined as 4.71 U/mg and the “substrate preference” value is “No significant preference”. As to `Cc1ccc(C[n+]2cccc(C(N)=O)c2)cc1` [p-BMNA^+, para-3-carbamoyl-1-(4-methylbenzyl)pyridin-1-ium], the “utilization of the tsNCB by SpADH2 (in words)” value in assay [1] is recorded as “No detectable activity”. Turning to `OCc1ccsc1` [3-thiophenemethanol], in assay [5], the “specific activity of SpADH2 toward the substrate” value is given as 4.78 U/mg and the “substrate preference” value is reported as “No significant preference”.

As for `Cc1ccccc1C[n+]1cccc(C(N)=O)c1` [o-BMNA^+, ortho-3-carbamoyl-1-(2-methylbenzyl)pyridin-1-ium], the “utilization of the tsNCB by SpADH2 (in words)” value in assay [1] was “No detectable activity”. For the molecule `NC(=O)c1ccc[n+](Cc2cccc(C(=O)O)c2)c1` [m-BANA^+, meta-3-carbamoyl-1-(3-carboxybenzyl)pyridin-1-ium], the “catalytic activity with the tsNCB as cofactor” value in assay [3] (1 h) was 118.11 U/g. For the same molecule, the “catalytic activity of all variants” value in assay [2] was “highest activity”.
